Results: patent US20170029366A1, “INHIBITORS OF HISTONE LYSINE SPECIFIC DEMETHYLASE (LSD1) AND HISTONE DEACETYLASES (HDACS)” (THE JOHNS HOPKINS UNIVERSITY, priority 2014, published 2017)
Where “and” joins values, the source holds several entries; their conditions need not be identical. Equal values may be shown once. Where a name gives a salt, the structure may show the parent alone.

Tests used:
[1] = molecular target: T1, GST-LSD1 (Homo sapiens, UniProt O60341); experiment: biochemical
[2] = molecular target: T1, GST-LSD1; conditions: for k(inact) / KI (inactivation): GST-LSD1, peroxidase-coupled assay; for k(inact)/Ki(inact): GST-LSD1 inactivation efficiency; for LSD1 inhibitory potency (in words): structure-activity comment on Table 1; for KI (inactivation): extrapolated to zero substrate
[3] = tested on: LNCaP cells; experiment: Drug combination experiments with bizine ([3H] thymidine, Combination Index); assay type: cell-based; conditions: binary combination with bizine, 48 h, 3H-thymidine incorporation
[4] = tested on: Immature primary cortical neurons; experiment: Oxidative toxicity (HCA) and neuron viability assay (MTT); assay type: cell-based, Sprague Dawley rats; conditions: 10 M phenelzine compared with 0.5 μM bizine
Method: The next day cells were rinsed and then placed in medium containing 5 mM HCA. […] The next day, cell viability was assessed by the MTT assay (Promega). […] The two-way ANOVA followed by the Bonferroni posttest was used to measure statistical significance. p<0.05 was considered to be statistically significant. Each bar represents four different rat cultures.

[5] = tested on: H3K4Me2 in LNCaP cells; experiment: Western blot of histone H3 marks in LNCaP cells; assay type: cell-based; conditions: 48 h, concentrations up to 40 M
From the text: Histone extracts were isolated as described previously. […] Data are presented from one representative experiment.
H3K4Me was detected using a polyclonal rabbit antibody (abcam ab8895). H3K4Me2 was detected using a monoclonal rabbit antibody (abcam ab32356). H3K4Me3 was detected using a polyclonal rabbit antibody (abcam ab8580). […] H3K9Me2 was detected using a monoclonal mouse antibody (abcam ab1220). H3K36Me3 was detected using a polyclonal rabbit antibody (abcam ab9050). H3K9Ac was detected using a polyclonal rabbit antibody (abcam ab4441). Total H3 was detected using a polyclonal rabbit antibody (abcam ab1791). LSD1 was detected using a polyclonal rabbit antibody (abcam ab17721). Actin was detected using a monoclonal mouse antibody (Sigma A1978).

SMILES	k(inact) [2]	k(inact)/Ki(inact) [2]	other results
CN(C)NCCc1ccccc1 [Compound 9b, 1,1-Dimethyl-2-(2-phenylethyl)hydrazine]			IC50 [1]: > 100000 nM
Cl.Cl.NNCCCc1ccccc1 [Compound 9c, (3-Phenylpropyl)hydrazine dihydrochloride]	0.32 ± 0.010 min⁻¹		
COc1ccc(CCCNN)cc1.Cl.Cl [Compound 9e, [3-(4-Methoxyphenyl)propyl]hydrazine dihydrochloride]	0.15 ± 0.023 min⁻¹	317 ± 145 M⁻¹ s⁻¹	LSD1 inhibitory potency (in words) [2]: made little difference
CNNCCCc1ccc(OC)cc1 [Compound 9f, 1-[3-(4-Methoxyphenyl)propyl]-2-methylhydrazine dihydrochloride]			IC50 [1]: > 100000 nM
Cl.Cl.NNCCCCc1ccccc1 [Compound 9h, (4-Phenylbutyl)hydrazine dihydrochloride]	0.12 ± 0.01 min⁻¹	91.7 ± 14.5 M⁻¹ s⁻¹	
Cl.Cl.NNCCOc1ccccc1 [Compound 10a, (2-Phenoxyethyl)hydrazine dihydrochloride]	0.15 ± 0.010 min⁻¹	56.7 ± 13.2 M⁻¹ s⁻¹	
Cl.Cl.NNCCCOc1ccccc1 [Compound 10b, (3-Phenoxypropyl)hydrazine dihydrochloride]	0.22 ± 0.020 min⁻¹	300 ± 60 M⁻¹ s⁻¹	
NNCCCN1CCOCC1 [Compound 11, 4-(3-Hydrazinylpropyl) morpholine, reference compound]			LSD1 inhibitory potency (in words) [2]: not compatible with LSD1 inhibition; IC50 [1]: > 100000 nM
Cl.Cl.NNCCc1ccc(NC(=O)c2ccccc2)cc1 [Compound 12a, N-[4-(2-Hydrazinylethyl)phenyl]benzamide dihydrochloride]	0.19 ± 0.036 min⁻¹	11700 ± 5170 M⁻¹ s⁻¹	
Cl.Cl.NNCCc1ccc(NC(=O)Cc2ccccc2)cc1 [Compound 12b, N-[4-(2-Hydrazinylethyl)phenyl]-2-phenylacetamide dihydrochloride]	0.20 ± 0.0087 min⁻¹	9000 ± 900 M⁻¹ s⁻¹	
NNCCc1ccc(NC(=O)CCc2ccccc2)cc1.O=S(=O)(O)O [Compound 12c, N-[4-(2-Hydrazinylethyl)phenyl]-3-phenylpropanamide sulfate]	0.24 ± 0.022 min⁻¹	15300 ± 3670 M⁻¹ s⁻¹	
NNCCc1ccc(NC(=O)CCCCc2ccccc2)cc1.O=C(O)C(=O)O [Compound 12e, N-[4-(2-Hydrazinylethyl)phenyl]-5-phenylpentanamide oxalate]	0.22 ± 0.038 min⁻¹	14300 ± 6500 M⁻¹ s⁻¹	
NNCCc1ccc(NC(=O)CCCc2ccc(Cl)cc2)cc1.O=S(=O)(O)O [Compound 12f, 4-(4-Chlorophenyl)-N-[4-(2-hydrazinylethyl)phenyl]butanamide sulfate]	0.17 ± 0.018 min⁻¹	18300 ± 5830 M⁻¹ s⁻¹	
COc1ccc(CCCC(=O)Nc2ccc(CCNN)cc2)cc1.O=S(=O)(O)O [Compound 12h, N-[4-(2-Hydrazinylethyl)phenyl]-4-(4-methoxyphenyl)butanamide sulfate]	0.26 ± 0.042 min⁻¹	20000 ± 9500 M⁻¹ s⁻¹	KI (inactivation) [2]: 207 ± 89 nM
NNCCc1ccc(NC(=O)CCCc2ccc([N+](=O)[O-])cc2)cc1.O=S(=O)(O)O [Compound 12i, N-[4-(2-Hydrazinylethyl)phenyl]-4-(4-nitrophenyl)butanamide sulfate]	0.21 ± 0.024 min⁻¹	12300 ± 3670 M⁻¹ s⁻¹	
CS(=O)(=O)Oc1ccccc1CCC(=O)Nc1ccc(CCNN)cc1.O=C(O)C(=O)O [Compound 12j, 2-(3-{[4-(2-Hydrazinylethyl)phenyl]amino}-3-oxopropyl)phenyl methanesulfonate oxalate]	0.18 ± 0.034 min⁻¹	14700 ± 7670 M⁻¹ s⁻¹	KI (inactivation) [2]: 204 ± 98 nM
CS(=O)(=O)Oc1cccc(CCC(=O)Nc2ccc(CCNN)cc2)c1.O=C(O)C(=O)O [Compound 12k, 3-(3-{[4-(2-Hydrazinylethyl)phenyl]amino}-3-oxopropyl)phenyl methanesulfonate oxalate]	0.17 ± 0.020 min⁻¹	12700 ± 4000 M⁻¹ s⁻¹	KI (inactivation) [2]: 223 ± 64 nM
CN(C(=O)CCCc1ccccc1)c1ccc(CCNN)cc1.O=C(O)C(=O)O [Compound 12l, N-[4-(2-Hydrazinylethyl)phenyl]-N-methyl-4-phenylbutanamide oxalate]	0.24 ± 0.033 min⁻¹	2000 ± 750 M⁻¹ s⁻¹	
NNCCc1ccc(N(Cc2ccccc2)C(=O)CCCc2ccccc2)cc1.O=C(O)C(=O)O [Compound 12m, N-Benzyl-N-[4-(2-hydrazinylethyl)phenyl]-4-phenylbutanamide oxalate]	0.22 ± 0.025 min⁻¹	2330 ± 733 M⁻¹ s⁻¹	
NNCCc1ccc(NC(=O)/C=C/c2ccccc2)cc1.O=S(=O)(O)O [Compound 13, (2E)-N-[4-(2-Hydrazinylethyl)phenyl]-3-phenylprop-2-enamide sulfate]	0.17 ± 0.21 min⁻¹	28300 ± 11300 M⁻¹ s⁻¹	LSD1 inhibitory potency (in words) [2]: reduced LSD1 inhibitory potency
NNCCCc1ccc(OCc2ccccc2)cc1 [Compound 14, {3-[4-(Benxyloxy)phenyl]propyl}hydrazine]	0.18 ± 0.038 min⁻¹	3330 ± 1830 M⁻¹ s⁻¹	KI (inactivation) [2]: 900 ± 450 nM; LSD1 inhibitory potency (in words) [2]: reduced LSD1 inhibitory potency
NNCCc1ccc(NC(=O)CCc2c[nH]c3ccccc23)cc1.O=S(=O)(O)O [Compound 15a, N-[4-(2-Hydrazinylethyl)phenyl]-3-(1H-indol-3-yl)propanamide sulfate]	0.21 ± 0.030 min⁻¹	16700 ± 6830 M⁻¹ s⁻¹	
Cc1[nH]c2ccccc2c1CCNCc1ccc(/C=C/C(=O)NO)cc1 [LBH-589]			effect of combination with bizine on cell inhibition (in words) [3]: additive to synergistic effects
Nc1ccccc1NC(=O)c1ccc(CNC(=O)OCc2cccnc2)cc1 [MS-275]			effect of combination with bizine on cell inhibition (in words) [3]: additive to synergistic effects
NNCCc1ccccc1 [phenelzine, reference compound]	0.35 min⁻¹ and 0.35 ± 0.056 min⁻¹		neuroprotection after HCA-treatment [4]: comparable; H3K4Me2 changes [5]: did not induce H3K4Me2 changes
